PMC11356571, “The Comparative Metabolism of a Novel Hepatocellular Carcinoma Therapeutic Agent, 2,3-Diamino-N-(4-(benzo[d]thiazol-2-yl)phenyl)propanamide, in Human and Animal Hepatocytes” (Metabolites, 2024)

Molecular target: T1, human NAT1 (Homo sapiens, UniProt P18440)
T1 construct: purchased Corning Life Sciences (Woburn, MA, USA)
T1 sequence (P18440 1-290): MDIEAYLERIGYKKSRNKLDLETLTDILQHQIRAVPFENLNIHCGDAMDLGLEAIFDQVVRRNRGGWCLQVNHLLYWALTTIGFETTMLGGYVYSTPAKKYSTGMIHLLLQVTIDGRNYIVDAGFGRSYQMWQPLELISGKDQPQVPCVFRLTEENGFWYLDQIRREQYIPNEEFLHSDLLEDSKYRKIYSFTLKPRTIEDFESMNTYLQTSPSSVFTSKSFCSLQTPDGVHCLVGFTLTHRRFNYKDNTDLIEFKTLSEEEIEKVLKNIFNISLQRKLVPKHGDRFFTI
Experiment: Incubation with cDNA-expressed human NAT1
Assay type: in vitro ADME
Settings: cDNA-expressed human NAT1, 60 min at 37 °C, concentration of 0.1 μM
Experimental: Additionally, M1 was incubated with cDNA-expressed human NAT1 isozyme to confirm the involvement of the NAT1 isozyme in the N-acetylation of M1. This was carried out by monitoring the remaining percentage of M1 and the formation of M2 in a concentration-dependent manner. A 225 μL reaction mixture containing cDNA-expressed human NAT1 at 1 μg/mL, and 1 μM M1 (final concentration: 0.1 and 1 μM) in 0.05 M potassium phosphate buffer was pre-warmed for 5 min. The reaction was initiated by adding 25 μL of acetyl-CoA regenerating system to the incubates. The acetyl-CoA regenerating system consisted of 0.1 mM acetyl-CoA, 4.5 mM acetyl-DL-carnitine, and 2.0 unit/mL carnitine acetyltransferase as final concentrations. The samples were incubated in triplicate for 0 min or 60 min at 37 °C. The reactions were stopped by adding 250 μL of ice-cold acetonitrile containing the IS (camptothecin, 500 ng/mL). Samples were centrifuged at 13,000 rpm for 5 min at 4 °C. An aliquot of 2 μL supernatant was injected in LC-MS/MS system.
For enzyme characterization, an Agilent 6460 triple quadrupole mass spectrometer coupled with a 1260 HPLC system (Agilent Technologies, Santa Clara, CA, USA) and a Kinetex Halo® C18 column (2.7 μm, 2.1 × 50 mm, Advanced Material Technology, Wilmington, DE, USA) were used for chromatographic separation. […] ETN101, M1, and M2 were detected via MRM using ESI in the positive mode. […]

Nc1ccc(-c2nc3ccccc3s2)cc1 [M1, 2-(4-aminophenyl)benzothiazole]
Percentage remaining of M1: 90.3%
